Substitutions are numbered along the chain they refer to.
Legend:
OATP-C [1] = biological target: T1, OATP-C (Homo sapiens, UniProt Q9Y6L6); conditions: literature reports (Brown 2001, in vitro; Hsiang 1999); cited from earlier work
T1 sequence (Q9Y6L6 1-691): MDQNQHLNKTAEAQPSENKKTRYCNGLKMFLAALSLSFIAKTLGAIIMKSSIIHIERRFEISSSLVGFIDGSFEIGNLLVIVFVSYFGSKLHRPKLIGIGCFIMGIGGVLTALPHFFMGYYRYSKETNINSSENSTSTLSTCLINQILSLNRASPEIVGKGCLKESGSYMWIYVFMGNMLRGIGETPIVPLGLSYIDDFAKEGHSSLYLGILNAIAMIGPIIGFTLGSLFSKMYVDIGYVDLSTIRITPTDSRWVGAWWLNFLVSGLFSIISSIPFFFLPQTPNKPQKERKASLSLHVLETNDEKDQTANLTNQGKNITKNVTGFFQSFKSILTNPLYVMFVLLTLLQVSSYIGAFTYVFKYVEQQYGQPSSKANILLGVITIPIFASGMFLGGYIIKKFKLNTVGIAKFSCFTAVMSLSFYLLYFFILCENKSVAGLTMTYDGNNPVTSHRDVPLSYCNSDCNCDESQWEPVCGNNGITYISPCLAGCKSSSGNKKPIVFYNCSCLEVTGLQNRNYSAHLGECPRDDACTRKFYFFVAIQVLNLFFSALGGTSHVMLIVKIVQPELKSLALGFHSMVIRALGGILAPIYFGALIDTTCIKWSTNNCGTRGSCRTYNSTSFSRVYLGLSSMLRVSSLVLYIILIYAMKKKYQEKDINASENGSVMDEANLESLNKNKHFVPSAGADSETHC

OATP-C [2] = biological target: T2, OATP-C (Homo sapiens, UniProt Q9Y6L6, N130D/V174A); conditions: Japanese healthy volunteers; Nishizato 2003; cited from earlier work
T2 construct: host or cells: human volunteers (in vivo)
T2 sequence (Q9Y6L6 1-691 N130D/V174A): T1 sequence (Q9Y6L6 1-691) with N130D, V174A

OATP-C [3] = conditions: cohort of healthy volunteers; Niemi 2004; cited from earlier work
OATP-C [4] = assay: Dose-normalised plasma rosuvastatin concentrations by OATP-C genotype/haplotype in patients treated for 6 weeks; type: in vivo, human
Text: In brief, the OATP-C gene was sequenced in 79 human clinical trial subjects. 52 of these patients had received rosuvastatin for at least 6 weeks for dislipidaemic disease and had plasma PK measurements taken after 6 weeks of treatment.
The promoter, exons and 3′ untranslated regions of OATP-C were fully sequenced by DNA terminator sequencing in DNA collected from 79 subjects in clinical trials. Sequencing traces were used to record the genotypes for known (i.e. available in the literature or SNP databases) SNPs in OATP-C. Some novel SNPs were found in the promoter and 3′UTR region of OATP-C.
Mean dose-normalised plasma rosuvastatin concentrations were determined for the genotypes for each polymorphic variant in the OATP-C gene. OATP-C genotype data for 3 SNPs, namely amino acid position 130 Asparagine→Aspartic acid (Asn130Asp), 155 Proline→Threonine (Pro 155Thr) and 174 Valine→Alanine (Val174Ala), was utilised to determine the haplotype pair for each subject. Mean dose-normalised plasma rosuvastatin concentrations were determined for the subjects grouped by haplotype pair.
All consenting subjects treated with rosuvastatin (n=271), from the 2 clinical trials including the original 52 patients, were subsequently genotyped, using TaqMan™, for OATP-C variants. Data for SNPs causing the N130D, P155T and V174A variants were utilised to assign OATPC haplotype pairs to each subject, as previously described.

Row | dose-normalised plasma rosuvastatin values, 174Ala variant vs wild type (OATP-C [4]; FIG. 1, 52 subjects, Val174Ala heterozygote vs wild-type homozygote, after 6 weeks of treatment) | dose-normalised plasma rosuvastatin values, OATP-C*15 haplotype vs other haplotypes (OATP-C [4]; FIG. 2, haplotype pairs, after 6 weeks of treatment) | mean plasma rosuvastatin levels (dose normalised), Val174Ala heterozygous vs Val/Val (OATP-C [4]; FIG. 3, patients treated 6 weeks with different doses, most evident at higher doses) | mean plasma rosuvastatin concentrations, az0005537 (-118A>C) A/C heterozygous vs A/A (OATP-C [4]; FIG. 4, two independent phase III studies) | effect of OATP-C variants N130D and P155T on pharmacokinetic disposition (OATP-C [4]; patients, dose-normalised plasma levels) | SMILES | substrate / transport by OATP-C (OATP-C [1]) | effect of OATPC*15 allele (N130D and V174A) on pharmacokinetics (OATP-C [2]) | correlation between PK and a haplotype containing a promoter SNP (OATP-C [3]) | mean plasma rosuvastatin concentrations, 174A variant with az0005537 C allele vs az0005537 A allele (OATP-C [4]; FIG. 5, combined 2 phase III studies, V174A heterozygotes stratified by promoter genotype)
1 |  |  |  |  |  | CC[C@H](C)C(=O)O[C@H]1C[C@H](O)C=C2C=C[C@H](C)[C@H](CC[C@@H](O)C[C@@H](O)CC(=O)O)[C@H]21 [pravastatin] | actively transported | had an effect | significant correlation | 
2 | higher plasma concentrations | higher plasma concentrations | higher | trend for an increase | do not appear to affect | CC(C)c1nc(N(C)S(C)(=O)=O)nc(-c2ccc(F)cc2)c1/C=C/[C@@H](O)C[C@@H](O)CC(=O)O [rosuvastatin] | substrate for OATP-C |  |  | tendency for higher mean plasma rosuvastatin concentrations

Reference: US7700277B2, “Use of polymorphisms in human OATP-C associated with an effect on statin pharmacokinetics in humans in statin therapy” (AstraZeneca AB, priority 2003, dated 2010)
